# Experimental data taken from patent US20140194373A1, “COSMETIC USE OF […] A DERIVATIVE THEREOF IN THE PREVENTION AND/OR TREATMENT OF BODY ODOUR” (NESTEC S.A., priority 2011, published 2014).
# Tested on: dermicidin
# Assay: Differential proteomic analysis (iTRAQ) of stratum corneum varnish strips after oral supplementation, randomized double-blind study
# Type: in vivo, women
# Conditions: 500 mg of hesperidin per day, samples at D1 and D168, left leg, compared with placebo maltodextrin, n=33 per group
# Experimental: The test product consists of hesperidin and is administered orally.
# The active agent was tested alone in a randomized double-blind study.
# 66 women were divided into two groups, one of these groups testing maltodextrin (n=33 group A), the other testing hesperidin (n=33 group B).
# The supplementation was 500 mg of hesperidin per day.
# The evolution of various cutaneous markers was studied by proteomics on samples of isolated stratum corneum as indicated hereinbelow.
# A sample is taken at times D1 and D168 with varnish strips in order to remove only part of the stratum corneum, i.e. at most the first 4 to 5 layers of stratum corneum.
# To do this, a 41 μm Nylon filter gauze of Millipore NY41 type is applied to a predefined area of the left leg. […]
# These skin samples (varnish strips of stratum corneum) were then analysed by proteomics by means of an “isobaric marking” technique to evaluate the expression of the protein(s) under study. […]
# The marked peptides are detected by mass spectrometry with the intrinsic mass of the peptide +145 Da, originating from the reagent. In the peptide fragmentation step, the contribution of each of the reagents is assessed by the release of ions (fragments) having different specific masses. […]
smiles,measurement,value
"COc1ccc([C@@H]2CC(=O)c3c(O)cc(O[C@@H]4O[C@H](CO[C@@H]5O[C@@H](C)[C@H](O)[C@@H](O)[C@H]5O)[C@@H](O)[C@H](O)[C@H]4O)cc3O2)cc1O [hesperidin, (S)-7-[[6-0-(6-deoxy-α-L-mannopyranosyl)-β-D-glucopyranosyl]oxy]-2,3-dihydro-5-hydroxy-2-(3-hydroxy-4-methoxyphenyl)-4H-1-benzopyran-4-one]",expression of dermicidin in stratum corneum,significantly stimulates the expression of dermicidin
